In ChEMBL document CHEMBL1201862, “PubChem BioAssay data set” (2004):
Active and inactive are the calls of the source.

Key:
Jurkat = experiment: SAR Analysis of small molecule inhibitors of T-cell specific antigen receptor-induced NF-kB activation in a Jurkat cell line using a luminescence assay - Set 2. [Related pubchem assays (depositor defined):AID435003, AID435012, AID465]; type: functional, cell-based; conditions: Homo sapiens
cells [1] = type: functional, cell-based
cells [2] = type: functional, cell-based; remark: listed apart in the source
[3] = HEK-293T viability loss after treatment – luminescence, T-cell screen hits, cytotoxicity control for TCR NF-kB inhibitor project, dose response (AID 489026); type: functional, cell-based;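 further: cells exposed to compound about 14 hours before the viability readout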
[4] = non-specific 3'UTR reporter inhibition in Clone20-Shn3RL – cell-based, Renilla luciferase, cherry-picked, counter-screen for Shn3 inhibitor project, dose response (AID 624133); type: functional
[5] = molecular target: Histone-lysine N-methyltransferase NSD2 (Homo sapiens, UniProt O96028); type: biochemical
HeLa = experiment: viability loss in HeLa cells – cell-based, 24 h, cherry-picked samples, cytotoxicity control, dose response (AID 504726); type: functional; conditions: Homo sapiens;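 further: potency for cytotoxicity as loss of luminescence signal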
Hexokinase HKDC1 = molecular target: T1, Hexokinase HKDC1 (Homo sapiens, UniProt Q2TB90); experiment: analog inhibition of human HKDC1 activity – biochemical, set 2, SAR follow-up (AID 588355); type: functional
T1 sequence (Q2TB90 whole entry): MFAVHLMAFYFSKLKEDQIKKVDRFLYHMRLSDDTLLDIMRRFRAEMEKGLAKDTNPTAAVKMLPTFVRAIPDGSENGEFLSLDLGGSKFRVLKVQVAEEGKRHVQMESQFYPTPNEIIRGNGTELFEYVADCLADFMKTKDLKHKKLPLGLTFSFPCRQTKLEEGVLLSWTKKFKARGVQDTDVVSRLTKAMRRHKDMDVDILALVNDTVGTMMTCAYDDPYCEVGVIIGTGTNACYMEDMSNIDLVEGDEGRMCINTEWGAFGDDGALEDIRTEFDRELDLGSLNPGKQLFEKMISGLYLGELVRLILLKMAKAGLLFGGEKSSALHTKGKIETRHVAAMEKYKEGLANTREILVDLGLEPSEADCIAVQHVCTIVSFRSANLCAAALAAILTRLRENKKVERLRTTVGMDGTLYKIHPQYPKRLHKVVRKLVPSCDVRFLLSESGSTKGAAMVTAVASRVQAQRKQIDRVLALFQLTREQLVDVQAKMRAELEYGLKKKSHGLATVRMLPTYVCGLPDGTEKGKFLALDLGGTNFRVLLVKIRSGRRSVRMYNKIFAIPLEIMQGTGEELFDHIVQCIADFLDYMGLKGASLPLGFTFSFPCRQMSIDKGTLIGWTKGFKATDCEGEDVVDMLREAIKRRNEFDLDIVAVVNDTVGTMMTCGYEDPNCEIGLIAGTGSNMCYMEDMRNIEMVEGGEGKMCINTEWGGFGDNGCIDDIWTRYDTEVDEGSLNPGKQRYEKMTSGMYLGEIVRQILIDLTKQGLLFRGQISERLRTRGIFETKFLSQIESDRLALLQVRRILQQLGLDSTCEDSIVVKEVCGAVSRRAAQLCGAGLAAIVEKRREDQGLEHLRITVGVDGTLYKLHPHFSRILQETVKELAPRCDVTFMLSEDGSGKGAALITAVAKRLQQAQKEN

Caspase-6 = molecular target: T2, Caspase-6 (Homo sapiens, UniProt P55212); experiment: inhibition of CASP6 peptide cleavage – biochemical, VEID-R110 fluorescence, cherry-pick, dose response (AID 720632)
T2 sequence (P55212 whole entry): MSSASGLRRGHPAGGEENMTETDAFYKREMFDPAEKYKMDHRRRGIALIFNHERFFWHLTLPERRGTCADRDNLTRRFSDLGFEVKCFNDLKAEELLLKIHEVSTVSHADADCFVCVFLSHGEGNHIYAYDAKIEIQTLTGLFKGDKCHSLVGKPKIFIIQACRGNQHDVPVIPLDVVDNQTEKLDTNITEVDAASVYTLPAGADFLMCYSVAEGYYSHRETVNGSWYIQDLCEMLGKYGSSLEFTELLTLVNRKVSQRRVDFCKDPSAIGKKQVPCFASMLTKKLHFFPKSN

Streptokinase A = molecular target: T3, Streptokinase A (Streptococcus pyogenes serotype M1, UniProt P10520); experiment: viability-normalized secreted streptokinase activity reduction – plasminogen activation absorbance, OD405, dose response (AID 1914); type: functional, Streptococcus pyogenes M1 GAS;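 further: secreted streptokinase activity via plasminogen activation per viability signal from cell pellet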
T3 sequence (P10520 whole entry): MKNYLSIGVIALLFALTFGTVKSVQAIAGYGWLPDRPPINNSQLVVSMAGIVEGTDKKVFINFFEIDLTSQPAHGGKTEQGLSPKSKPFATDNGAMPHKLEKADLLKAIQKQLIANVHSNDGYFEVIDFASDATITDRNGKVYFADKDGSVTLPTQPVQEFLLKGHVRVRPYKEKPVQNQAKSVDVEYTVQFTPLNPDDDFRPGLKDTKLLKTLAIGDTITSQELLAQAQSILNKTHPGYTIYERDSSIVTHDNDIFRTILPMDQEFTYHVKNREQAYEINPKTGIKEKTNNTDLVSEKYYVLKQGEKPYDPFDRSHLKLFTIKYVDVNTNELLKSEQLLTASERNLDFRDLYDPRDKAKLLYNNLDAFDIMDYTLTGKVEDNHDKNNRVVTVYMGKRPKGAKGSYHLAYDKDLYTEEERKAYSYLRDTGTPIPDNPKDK

Caspase-3 = molecular target: T4, Caspase-3 (Homo sapiens, UniProt P42574); experiment: activation of caspase-3 zymogen – biochemical, absorbance, dose response (AID 489014)
T4 sequence (P42574 whole entry): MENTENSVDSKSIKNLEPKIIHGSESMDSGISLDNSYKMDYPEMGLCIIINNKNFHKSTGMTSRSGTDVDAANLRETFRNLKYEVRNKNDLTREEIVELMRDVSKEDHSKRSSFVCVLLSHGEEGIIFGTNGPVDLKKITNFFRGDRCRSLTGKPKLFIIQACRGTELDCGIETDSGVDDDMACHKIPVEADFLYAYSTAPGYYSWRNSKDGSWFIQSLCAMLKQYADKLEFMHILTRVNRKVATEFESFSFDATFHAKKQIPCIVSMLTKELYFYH

Caspase-7 = Caspase-7 (Homo sapiens, UniProt P55210); experiment: activation of caspase-7 zymogen – biochemical, absorbance, counter-screen for procaspase-3 activator project, dose response (AID 489013)
Sequence of Caspase-7 (P55210 24-198 limits assumed): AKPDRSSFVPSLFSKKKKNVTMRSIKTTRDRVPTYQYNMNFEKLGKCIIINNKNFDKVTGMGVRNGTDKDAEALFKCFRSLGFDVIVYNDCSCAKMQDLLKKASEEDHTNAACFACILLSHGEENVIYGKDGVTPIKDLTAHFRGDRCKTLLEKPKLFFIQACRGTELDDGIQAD
Sequence of Caspase-7 (P55210 207-303 limits assumed): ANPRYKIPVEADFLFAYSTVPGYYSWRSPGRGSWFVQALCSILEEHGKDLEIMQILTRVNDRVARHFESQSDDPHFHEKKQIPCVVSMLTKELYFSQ

Sequence of Histone-lysine N-methyltransferase NSD2 (O96028 whole entry): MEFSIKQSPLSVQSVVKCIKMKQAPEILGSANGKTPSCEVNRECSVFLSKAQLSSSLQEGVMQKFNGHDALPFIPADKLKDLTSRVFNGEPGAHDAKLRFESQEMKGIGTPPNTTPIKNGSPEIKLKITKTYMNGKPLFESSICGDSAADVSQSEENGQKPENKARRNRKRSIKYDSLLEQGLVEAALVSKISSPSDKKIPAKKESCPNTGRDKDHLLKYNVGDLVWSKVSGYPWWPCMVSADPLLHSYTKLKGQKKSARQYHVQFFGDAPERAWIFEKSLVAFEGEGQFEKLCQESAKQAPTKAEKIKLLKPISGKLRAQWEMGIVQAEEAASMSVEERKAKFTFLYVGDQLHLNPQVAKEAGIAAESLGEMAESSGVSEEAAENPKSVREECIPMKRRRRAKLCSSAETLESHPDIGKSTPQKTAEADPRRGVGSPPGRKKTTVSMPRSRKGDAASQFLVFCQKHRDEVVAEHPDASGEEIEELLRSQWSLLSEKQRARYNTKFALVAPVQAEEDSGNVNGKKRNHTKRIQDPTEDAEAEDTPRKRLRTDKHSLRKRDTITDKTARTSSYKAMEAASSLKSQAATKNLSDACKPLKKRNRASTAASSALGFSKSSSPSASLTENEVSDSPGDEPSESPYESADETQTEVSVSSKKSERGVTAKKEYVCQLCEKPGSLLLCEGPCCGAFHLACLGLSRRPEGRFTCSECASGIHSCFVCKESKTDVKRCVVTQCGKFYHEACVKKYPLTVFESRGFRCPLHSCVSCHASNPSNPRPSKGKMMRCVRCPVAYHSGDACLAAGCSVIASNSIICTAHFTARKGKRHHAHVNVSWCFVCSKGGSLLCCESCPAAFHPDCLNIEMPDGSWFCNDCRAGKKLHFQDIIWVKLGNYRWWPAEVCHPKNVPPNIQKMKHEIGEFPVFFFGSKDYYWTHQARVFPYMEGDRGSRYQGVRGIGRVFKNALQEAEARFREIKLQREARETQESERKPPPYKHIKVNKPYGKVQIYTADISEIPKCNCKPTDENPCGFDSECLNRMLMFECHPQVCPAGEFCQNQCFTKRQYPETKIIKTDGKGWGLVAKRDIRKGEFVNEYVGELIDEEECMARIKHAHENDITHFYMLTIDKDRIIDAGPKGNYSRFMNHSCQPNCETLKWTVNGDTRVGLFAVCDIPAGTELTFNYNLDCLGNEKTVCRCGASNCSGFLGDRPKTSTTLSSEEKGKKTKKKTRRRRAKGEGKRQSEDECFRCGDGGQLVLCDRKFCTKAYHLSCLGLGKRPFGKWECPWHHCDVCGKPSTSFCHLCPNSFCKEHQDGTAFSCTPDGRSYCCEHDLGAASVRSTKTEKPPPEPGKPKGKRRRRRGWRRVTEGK

For `CCCCC(=O)NC(c1ccc(Cl)cc1)c1ccc2cccnc2c1O` (configuration not stated), the IC50 (Jurkat) was 5.28 µM (active), the EC50 (cells [1]) was 59.9 µM (active) and the EC50 (cells [2]) was 3.81 µM (active). The IC50 [3] was > 80 µM (inactive) and the AC50 [4] was 0.909 µM (active).

With `COc1ccc2noc3c2c1C(=O)c1ccccc1-3` the AC50 [5] was > 20 µM (inactive) and the AC50 (HeLa) was 74.7 µM (active).

For `CCc1ccc2c(c1)C(NC(C)=O)C(=O)N2CCN1CCOCC1` (configuration not stated), the IC50 (Hexokinase HKDC1) was 7.56 µM (active) and the AC50 (Caspase-6) was 11.9 µM (active).

With `O=C(N/N=C/c1ccccc1O)/C(O)=C\C1=NC2(CCCC2)Cc2ccccc21` the EC50 (Streptokinase A) was > 150 µM (not active), the EC50 (Caspase-3) was > 85.3 µM (inactive) and the EC50 (Caspase-7) was > 85.3 µM (inactive).
